Series [1] has as its target Signal transducer and activator of transcription 3 (STAT3) (Homo sapiens, UniProt P40763). Nature of the series: transcriptional activity of STAT3.
Series [2] concerns AMP-activated protein kinase (AMPK). Nature of the series: modulation of AMPK activity.
A further series is described as follows: half-life in dogs. The conditions noted are these: dog, in vivo, read-out: half-life (T1/2) (converted). From the text: (§1) The half-life (T1/2) of Medica compounds in humans differs considerably from their half-life in model animals. […] This difference in half-life could not be expected, and is of considerable significance when designing a new treatment protocol for humans.

For another series, the system named is HepG2 human liver cells. Nature of the series: inhibition of glucose production in HepG2 cells. The series is classed as cell-based. How it is done: (§2) The compound 2,2,15,15-tetramethylhexadecane-1,16-dioic acid (also designated M16αα), and also the compounds […] (M18αα) and 2,2,19,19-tetramethyl-[…]-1,20-dioic acid (M20αα), were tested for their effect on glucose uptake and production, and the expression of glucose- and lipid-related genes in in vitro models. […] Inhibition of glucose production was tested in HepG2 human liver cells.

The subject of series [3] is cultured human HepG2 liver cells. Briefly: inhibition of lipoprotein production in HepG2 cells. It counts as cell-based.
The next series has as its target Forkhead box O1 (FoxO1) (Homo sapiens, UniProt Q12778). Briefly: transcriptional activity of FoxO1.
The test system of series [4] is Type 2 Diabetes Mellitus (T2D) patients. Briefly: 4-week M16αα study in T2D patients, safety and tolerability. It counts as in vivo, human. The conditions noted are these: 40 mg/day oral, 28 days. How it is done: T2D patients, non-treated or treated with SoC antidiabetic drugs as outlined below, were screened for eligibility (inclusion/exclusion according to criteria detailed below), followed by being randomly allocated to receive once daily either add-on M16αα (40 mg M16αα plus 130 mg microcrystalline cellulose in gelatin capsules) or add-on placebo (130 mg microcrystalline cellulose in gelatin capsules), in addition to the SoC anti-diabetic treatment they have been receiving regularly. One patient was not under SoC anti-diabetic drug treatment. Sixteen (16) patients were randomized to M16αα treatment and 3 patients were randomized to placebo treatment. Patients randomized to M16αα treatment were dosed for 28 days with add-on M16αα in double-blinded manner, followed by 4-week recovery period using add-on placebo in a single-blinded manner. Patients randomized to placebo treatment were dosed for 28 days with add-on placebo in double-blinded manner.
The primary safety endpoint was the frequency, severity, and duration of adverse events (AEs), including clinically significant laboratory abnormalities after administration of M16αα.
Safety was evaluated on the basis of the following assessments: Adverse events (AEs)—continuous (starting from informed consent signature until end of study); vital signs; 12-lead ECG; physical examination; safety laboratory evaluations (blood and urine). […]

The nature of another series: half-life in humans. The series is classed as in vivo.
Excerpt: as §1

The subject of series [5] is Sterol response element binding protein 1 & 2 (SREBP). Nature of the series: transcriptional activity of SREBP.
Series [6] in a line: 4-week M16αα study in T2D patients, trough plasma levels. The series is classed as in vivo, human. The conditions noted are these: Cohort 1 patients, 40 mg once daily oral, 28-day dosing period. Here is the method:
Pre-dose blood samples to determine trough levels of M16αα were collected in lithium heparin tubes at the following dosing days: 1, 8, 15, 28, and EOS visit. Plasma M16αα concentrations have been presently processed for Cohort 1 patients only. […] Calculated PK parameters: Pre-dose Css.
Plasma concentrations of M16αα are determined by a validated LC/MS method. The lower and upper limits of quantitation for M16αα concentrations are 100 ng/mL and 5000 ng/mL, respectively. The assay is linear from 0.1-5 μg/mL. Dilution extends the range to 100 μg/mL

Another series can be described thus: half-life in rats. The conditions noted are these: rat, in vivo, read-out: half-life (T1/2) (converted).
Excerpt: as §1

Series [7] deals with genes that control liver gluconeogenesis and lipid synthesis. Nature of the series: expression of glucose- and lipid-related genes in in vitro models. It counts as cell-based. Here is the method: as §2
In the next series the test system is animal models. Briefly: plasma lipid lowering in animal models. The series is classed as in vivo.
Series [8] deals with fully differentiated 3T3L1 adipocytes. Briefly: glucose uptake in 3T3L1 adipocytes. The series is classed as cell-based. As to conditions: insulin as positive control. Here is the method:
as §2

Series [9] relates to C57BL/KsJ (db/db) Spontaneous T2D mice. Briefly: glucose lowering effect in db/db mice. The series is classed as in vivo. As to conditions: once daily oral 30 mg/kg. How it is done:
In addition, the glucose lowering effect of the above three compounds M16αα, M18αα and M20αα was tested in C57BL/KsJ (db/db) Spontaneous T2D mice, which serve as a model for T2D. These animals are characterized by hyperphagia, obesity, hyperglycemia and insulin resistance. The mice were treated once daily by oral administration of the tested compound at 30 mg/kg.

The target in series [10] is T1, Hepatocyte nuclear factor 4-alpha (HNF4α) (Homo sapiens, UniProt P41235).
T1 sequence (P41235 1-474): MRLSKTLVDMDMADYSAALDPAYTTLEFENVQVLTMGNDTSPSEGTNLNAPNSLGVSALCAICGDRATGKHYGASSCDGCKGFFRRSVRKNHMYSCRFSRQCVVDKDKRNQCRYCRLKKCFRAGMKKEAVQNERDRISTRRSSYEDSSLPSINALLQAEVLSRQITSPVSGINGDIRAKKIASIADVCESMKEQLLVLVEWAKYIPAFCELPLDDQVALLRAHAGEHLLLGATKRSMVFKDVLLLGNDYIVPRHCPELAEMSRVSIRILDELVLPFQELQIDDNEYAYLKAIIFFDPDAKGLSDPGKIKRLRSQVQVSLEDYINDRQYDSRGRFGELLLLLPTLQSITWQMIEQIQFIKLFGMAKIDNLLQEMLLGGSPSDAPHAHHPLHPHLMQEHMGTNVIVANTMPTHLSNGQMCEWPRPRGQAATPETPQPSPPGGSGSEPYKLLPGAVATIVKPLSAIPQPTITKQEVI
Briefly: transcriptional activity of HNF4α.

In series [11] the test system is animal models for T2D (e.g., rodents maintained on high-fat diet). Nature of the series: insulin sensitization, glucose lowering and energy expenditure in animal models for T2D. The series is classed as in vivo.
The subject of series [12] is animal models for T2D (e.g., db/db rats, rodents maintained on high-fat diet). The description is as above. The series is classed as in vivo.

Structures are written as SMILES.

Signal transducer and activator of transcription 3 (STAT3), sequence (P40763 whole entry, species assumed): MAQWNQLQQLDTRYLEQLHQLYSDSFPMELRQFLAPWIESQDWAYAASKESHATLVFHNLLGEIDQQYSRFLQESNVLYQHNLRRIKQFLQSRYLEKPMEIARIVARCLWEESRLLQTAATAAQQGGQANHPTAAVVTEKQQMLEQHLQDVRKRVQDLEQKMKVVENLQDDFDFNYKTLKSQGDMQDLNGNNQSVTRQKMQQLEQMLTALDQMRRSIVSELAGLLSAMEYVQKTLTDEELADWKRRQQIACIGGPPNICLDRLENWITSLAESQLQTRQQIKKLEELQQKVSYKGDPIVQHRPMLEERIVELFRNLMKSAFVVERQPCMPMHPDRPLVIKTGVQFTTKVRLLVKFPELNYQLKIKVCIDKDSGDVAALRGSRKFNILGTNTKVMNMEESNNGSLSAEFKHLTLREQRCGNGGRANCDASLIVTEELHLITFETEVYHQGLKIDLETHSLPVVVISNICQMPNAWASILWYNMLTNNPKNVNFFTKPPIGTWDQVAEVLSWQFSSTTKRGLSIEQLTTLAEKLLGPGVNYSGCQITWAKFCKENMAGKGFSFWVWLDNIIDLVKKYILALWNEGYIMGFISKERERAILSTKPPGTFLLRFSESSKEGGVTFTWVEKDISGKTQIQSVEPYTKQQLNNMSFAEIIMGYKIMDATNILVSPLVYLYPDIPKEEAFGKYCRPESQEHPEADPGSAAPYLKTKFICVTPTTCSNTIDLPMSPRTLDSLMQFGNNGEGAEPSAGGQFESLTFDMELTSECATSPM
Forkhead box O1 (FoxO1), sequence (Q12778 whole entry, species assumed): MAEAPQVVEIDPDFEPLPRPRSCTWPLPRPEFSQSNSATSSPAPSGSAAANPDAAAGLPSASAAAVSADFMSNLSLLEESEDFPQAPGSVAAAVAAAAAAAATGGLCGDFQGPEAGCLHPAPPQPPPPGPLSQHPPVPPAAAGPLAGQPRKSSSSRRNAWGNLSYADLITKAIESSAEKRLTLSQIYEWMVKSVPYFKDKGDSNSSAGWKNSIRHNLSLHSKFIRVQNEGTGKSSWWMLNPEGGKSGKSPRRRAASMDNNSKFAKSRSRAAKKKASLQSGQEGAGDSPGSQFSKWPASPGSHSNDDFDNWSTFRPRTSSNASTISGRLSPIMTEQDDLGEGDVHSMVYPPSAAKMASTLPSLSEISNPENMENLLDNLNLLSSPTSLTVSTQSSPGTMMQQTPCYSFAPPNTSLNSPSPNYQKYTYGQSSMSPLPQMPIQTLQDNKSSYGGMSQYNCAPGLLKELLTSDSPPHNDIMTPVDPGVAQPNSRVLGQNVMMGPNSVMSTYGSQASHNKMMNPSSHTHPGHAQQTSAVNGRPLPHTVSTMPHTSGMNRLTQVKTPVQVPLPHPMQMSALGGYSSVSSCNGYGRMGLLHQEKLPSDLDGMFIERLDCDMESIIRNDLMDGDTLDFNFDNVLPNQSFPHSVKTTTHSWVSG

Take `CC(C)(CCCCCCCCCCCCC(C)(C)C(=O)O)C(=O)O` [M16αα, 2,2,15,15-tetramethyl-hexadecane-1,16-dioic acid]: the “transcriptional activity of STAT3” value in [1] was “suppressing”. The AMPK activity result in series [2] was “activating”. For the same compound, in “half-life in dogs”, the half-life was 65 h. In addition, in the series on HepG2 human liver cells, the hepatic glucose production result is reported as “significant or full inhibition”. Besides, the lipoprotein production entry in series [3] was “significant or full inhibition”. Moreover, on Forkhead box O1 (FoxO1), the “transcriptional activity of FoxO1” value is “suppressing”. Moreover, in series [4], the “serious adverse events (SAE)” value is reported as “No serious adverse events (SAE) were recorded”; the tolerability and safety result was “well tolerated and safe”. Further, in the series “half-life in humans”, the “half-life (T1/2)” value lay in the range of 30 to 80 h. The half-life in the series “half-life in humans” (human, in vivo, as stated in PK evaluation, read-out: half-life) fell in the range of 30 to 80 h. Besides, the “transcriptional activity of SREBP” value in series [5] is “suppressing”. The “trough M16αα plasma concentrations” value in series [6] is reported as “increased progressively throughout the 28-day dosing period”. The half-life in “half-life in rats” was 2.4 ± 0.6 h. Moreover, the “expression of genes that control liver gluconeogenesis and lipid synthesis” value in series [7] was “effective in inhibiting”. Further, in the series on animal models, the “plasma LDL-cholesterol” value is “statin-like efficacy in lowering plasma LDL-cholesterol” and the plasma triglycerides result is reported as “robust decrease of plasma triglycerides”. Further, the glucose uptake result in series [8] was “increase glucose uptake”. In addition, in series [9], the blood glucose levels entry is on record as “significantly decrease”, the serum insulin levels entry is recorded as “significantly decrease” and the serum triglyceride levels entry is listed as “significantly decrease”. Moreover, the “transcriptional activity of HNF4α” value in [10] is listed as “suppressing”. For the same compound, the energy expenditure result in series [11] is “increased energy expenditure”. In addition, the “insulin-sensitizing and glucose-lowering efficacy” value in [12] was “potent insulin-sensitizing and glucose-lowering efficacy”.
